Assays:
[1] = biological target: Serine/threonine-protein kinase N2 (Homo sapiens, UniProt Q16513); experiment: Selectivity interaction (KinomeScan (DiscoverX)) EUB0000229b PKN2; conditions: at 10 µM
[2] = biological target: Maternal embryonic leucine zipper kinase (Homo sapiens) (UniProt Q14680); experiment: Selectivity interaction (ProQinase) EUB0000171b MELK
[3] = biological target: T1, Serine/threonine-protein kinase BRSK1 (Homo sapiens) (UniProt Q8TDC3); experiment: Selectivity interaction (ProQinase) EUB0000171b BRSK1
T1 sequence (whole entry): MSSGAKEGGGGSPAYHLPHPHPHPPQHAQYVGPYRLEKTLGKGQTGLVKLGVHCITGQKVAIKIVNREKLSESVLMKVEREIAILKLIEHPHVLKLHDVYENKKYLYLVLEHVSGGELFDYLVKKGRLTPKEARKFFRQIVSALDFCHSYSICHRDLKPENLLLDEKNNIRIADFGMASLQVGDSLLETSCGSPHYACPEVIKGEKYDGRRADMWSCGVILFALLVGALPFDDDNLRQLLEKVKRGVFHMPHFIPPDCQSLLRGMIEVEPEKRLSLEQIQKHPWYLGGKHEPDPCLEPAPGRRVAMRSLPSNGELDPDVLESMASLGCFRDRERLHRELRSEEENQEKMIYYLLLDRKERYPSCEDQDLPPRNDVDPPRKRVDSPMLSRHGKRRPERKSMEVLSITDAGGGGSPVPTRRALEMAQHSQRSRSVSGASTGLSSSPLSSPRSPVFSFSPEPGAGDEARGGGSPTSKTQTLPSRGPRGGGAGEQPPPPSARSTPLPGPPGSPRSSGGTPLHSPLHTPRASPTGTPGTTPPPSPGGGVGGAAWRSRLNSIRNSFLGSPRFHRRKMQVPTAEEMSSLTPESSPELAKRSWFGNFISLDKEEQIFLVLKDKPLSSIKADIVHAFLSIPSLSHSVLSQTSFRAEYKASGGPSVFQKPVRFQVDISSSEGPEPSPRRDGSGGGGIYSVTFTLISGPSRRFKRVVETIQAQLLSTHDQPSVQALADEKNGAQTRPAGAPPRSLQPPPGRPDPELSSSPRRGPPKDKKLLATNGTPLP

[4] = biological target: Ribosomal protein S6 kinase alpha-3 (Homo sapiens, UniProt P51812); experiment: Selectivity interaction (Kinase panel (KiNativ target engagement assay in Jurkat cells)) EUB0001635a RPS6KA3; format: cell-based; conditions: Selectivity number of off-targets 0.0, Selectivity number of targets 233.0, Source Knowledge https://www.sciencedirect.com/science/article/pii/S2451945619300674?via%3Dihub, at 1 µM
[5] = biological target: Macrophage-stimulating protein receptor (Homo sapiens, UniProt Q04912); experiment: Selectivity interaction (Kinase panel (Z-LYTE Assay)) EUB0001632a MST1R; conditions: at 10 µM
[6] = biological target: Tyrosine-protein kinase Lck (Homo sapiens, UniProt P06239); experiment: Selectivity interaction (KinomeScan (DiscoverX)) EUB0000607a LCK; conditions: at 10 µM
[7] = biological target: T2, Serine/threonine-protein kinase D1 (Homo sapiens) (UniProt Q15139); experiment: Selectivity interaction (Ambit KINOMEscan and KiNATiv profiling in Jurkat cells) EUB0000090b PRKD1; format: cell-based; conditions: at 1 µM
T2 sequence (whole entry): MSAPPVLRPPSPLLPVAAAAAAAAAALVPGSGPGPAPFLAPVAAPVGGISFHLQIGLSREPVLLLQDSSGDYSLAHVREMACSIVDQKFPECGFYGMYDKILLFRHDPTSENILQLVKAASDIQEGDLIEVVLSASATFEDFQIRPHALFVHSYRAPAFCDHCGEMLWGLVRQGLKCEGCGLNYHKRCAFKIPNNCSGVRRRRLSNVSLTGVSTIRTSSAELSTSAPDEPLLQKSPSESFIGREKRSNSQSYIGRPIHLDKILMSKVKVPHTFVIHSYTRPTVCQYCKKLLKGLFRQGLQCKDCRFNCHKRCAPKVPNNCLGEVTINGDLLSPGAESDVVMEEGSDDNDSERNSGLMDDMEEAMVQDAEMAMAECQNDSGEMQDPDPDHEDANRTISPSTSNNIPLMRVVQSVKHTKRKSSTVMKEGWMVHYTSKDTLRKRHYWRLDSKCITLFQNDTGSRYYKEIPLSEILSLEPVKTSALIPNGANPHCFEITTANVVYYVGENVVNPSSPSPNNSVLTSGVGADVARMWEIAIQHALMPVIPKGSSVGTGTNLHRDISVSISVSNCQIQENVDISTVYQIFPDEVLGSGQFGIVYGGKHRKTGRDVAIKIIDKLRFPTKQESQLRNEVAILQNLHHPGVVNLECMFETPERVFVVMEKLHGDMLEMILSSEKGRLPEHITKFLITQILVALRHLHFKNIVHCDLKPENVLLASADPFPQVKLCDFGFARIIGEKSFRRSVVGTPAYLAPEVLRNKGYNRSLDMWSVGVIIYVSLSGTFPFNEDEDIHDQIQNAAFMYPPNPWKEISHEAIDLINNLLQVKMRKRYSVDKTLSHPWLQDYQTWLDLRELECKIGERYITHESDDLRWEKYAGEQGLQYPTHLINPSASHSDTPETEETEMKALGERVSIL

Maternal embryonic leucine zipper kinase (Homo sapiens), sequence (Q14680 whole entry, looked up): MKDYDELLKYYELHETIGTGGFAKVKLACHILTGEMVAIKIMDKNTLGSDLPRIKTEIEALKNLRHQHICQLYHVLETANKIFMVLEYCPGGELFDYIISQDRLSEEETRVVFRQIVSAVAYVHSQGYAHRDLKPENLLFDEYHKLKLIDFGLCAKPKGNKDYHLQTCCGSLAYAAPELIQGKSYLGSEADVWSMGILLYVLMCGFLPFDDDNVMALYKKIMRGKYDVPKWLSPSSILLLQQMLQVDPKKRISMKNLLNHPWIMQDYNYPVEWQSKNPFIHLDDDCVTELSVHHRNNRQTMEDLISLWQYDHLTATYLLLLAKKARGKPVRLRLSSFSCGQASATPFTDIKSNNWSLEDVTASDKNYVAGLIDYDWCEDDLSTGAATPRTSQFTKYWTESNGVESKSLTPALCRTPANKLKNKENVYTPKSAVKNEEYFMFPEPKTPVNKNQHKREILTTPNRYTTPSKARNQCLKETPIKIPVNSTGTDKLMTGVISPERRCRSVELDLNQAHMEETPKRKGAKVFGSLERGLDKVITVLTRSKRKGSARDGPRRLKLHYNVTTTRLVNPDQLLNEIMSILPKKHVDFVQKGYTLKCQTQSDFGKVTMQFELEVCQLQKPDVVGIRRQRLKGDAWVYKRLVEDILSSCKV
Macrophage-stimulating protein receptor, sequence (Q04912 25-304 limits assumed): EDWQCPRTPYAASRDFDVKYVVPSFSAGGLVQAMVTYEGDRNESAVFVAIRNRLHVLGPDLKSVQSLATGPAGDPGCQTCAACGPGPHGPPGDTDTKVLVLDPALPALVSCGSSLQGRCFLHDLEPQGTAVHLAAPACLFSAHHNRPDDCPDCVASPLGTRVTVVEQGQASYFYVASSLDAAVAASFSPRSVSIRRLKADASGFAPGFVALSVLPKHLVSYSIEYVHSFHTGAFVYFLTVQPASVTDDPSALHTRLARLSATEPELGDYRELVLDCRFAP
Macrophage-stimulating protein receptor, sequence (Q04912 310-1400 limits assumed): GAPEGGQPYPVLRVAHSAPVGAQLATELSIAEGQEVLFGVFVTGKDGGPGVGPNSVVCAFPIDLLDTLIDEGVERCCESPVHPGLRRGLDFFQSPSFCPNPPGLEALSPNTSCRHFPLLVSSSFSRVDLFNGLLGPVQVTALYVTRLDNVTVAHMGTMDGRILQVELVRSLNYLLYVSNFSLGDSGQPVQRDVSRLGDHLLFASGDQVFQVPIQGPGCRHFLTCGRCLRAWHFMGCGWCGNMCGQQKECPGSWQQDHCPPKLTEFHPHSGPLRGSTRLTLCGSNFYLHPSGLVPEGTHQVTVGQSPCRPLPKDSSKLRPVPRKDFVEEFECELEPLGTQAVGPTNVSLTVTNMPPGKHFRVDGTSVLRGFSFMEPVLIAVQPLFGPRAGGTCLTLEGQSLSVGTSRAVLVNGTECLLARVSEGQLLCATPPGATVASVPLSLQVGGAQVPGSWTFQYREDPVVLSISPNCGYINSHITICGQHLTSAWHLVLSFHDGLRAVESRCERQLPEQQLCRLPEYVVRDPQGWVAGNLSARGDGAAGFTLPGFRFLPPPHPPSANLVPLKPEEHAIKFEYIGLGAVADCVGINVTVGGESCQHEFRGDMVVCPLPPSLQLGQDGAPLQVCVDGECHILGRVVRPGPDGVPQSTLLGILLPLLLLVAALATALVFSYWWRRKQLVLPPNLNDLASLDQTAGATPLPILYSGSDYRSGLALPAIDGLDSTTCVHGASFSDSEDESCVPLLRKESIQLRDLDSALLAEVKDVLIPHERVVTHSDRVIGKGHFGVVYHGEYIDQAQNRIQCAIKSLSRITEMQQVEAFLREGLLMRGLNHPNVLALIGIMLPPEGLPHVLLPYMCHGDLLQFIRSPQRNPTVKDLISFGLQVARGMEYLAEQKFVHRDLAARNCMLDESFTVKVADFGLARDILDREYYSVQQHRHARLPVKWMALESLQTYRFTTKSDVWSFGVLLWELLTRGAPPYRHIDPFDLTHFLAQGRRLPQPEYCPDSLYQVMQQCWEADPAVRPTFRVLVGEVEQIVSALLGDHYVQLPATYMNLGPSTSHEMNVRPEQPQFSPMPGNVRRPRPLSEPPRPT
Serine/threonine-protein kinase N2, sequence (Q16513 whole entry, looked up): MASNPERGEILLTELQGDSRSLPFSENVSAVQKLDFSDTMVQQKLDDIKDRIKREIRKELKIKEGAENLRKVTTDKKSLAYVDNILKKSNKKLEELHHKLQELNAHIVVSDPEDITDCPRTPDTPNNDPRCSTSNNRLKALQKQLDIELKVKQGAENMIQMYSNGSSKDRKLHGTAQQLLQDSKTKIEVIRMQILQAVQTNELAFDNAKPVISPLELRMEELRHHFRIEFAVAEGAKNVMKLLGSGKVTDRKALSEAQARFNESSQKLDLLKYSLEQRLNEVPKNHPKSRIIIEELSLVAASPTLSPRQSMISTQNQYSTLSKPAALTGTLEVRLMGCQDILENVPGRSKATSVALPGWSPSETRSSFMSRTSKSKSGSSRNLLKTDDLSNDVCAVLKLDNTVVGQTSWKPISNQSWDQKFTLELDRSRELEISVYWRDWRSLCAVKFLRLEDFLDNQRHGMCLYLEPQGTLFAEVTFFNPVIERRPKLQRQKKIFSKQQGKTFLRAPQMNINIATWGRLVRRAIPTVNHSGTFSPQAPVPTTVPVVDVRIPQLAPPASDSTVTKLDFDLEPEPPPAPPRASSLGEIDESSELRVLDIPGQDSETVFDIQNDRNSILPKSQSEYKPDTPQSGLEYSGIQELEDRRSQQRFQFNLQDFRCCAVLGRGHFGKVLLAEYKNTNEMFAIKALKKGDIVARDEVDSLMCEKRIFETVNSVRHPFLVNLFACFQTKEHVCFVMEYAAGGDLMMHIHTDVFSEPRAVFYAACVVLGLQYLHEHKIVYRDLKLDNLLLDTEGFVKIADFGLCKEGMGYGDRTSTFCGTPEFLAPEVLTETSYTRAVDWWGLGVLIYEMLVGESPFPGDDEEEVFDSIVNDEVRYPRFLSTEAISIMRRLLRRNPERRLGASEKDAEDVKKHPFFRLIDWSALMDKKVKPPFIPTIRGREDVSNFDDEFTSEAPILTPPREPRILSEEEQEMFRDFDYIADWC
Tyrosine-protein kinase Lck, sequence (P06239 2-509 limits assumed): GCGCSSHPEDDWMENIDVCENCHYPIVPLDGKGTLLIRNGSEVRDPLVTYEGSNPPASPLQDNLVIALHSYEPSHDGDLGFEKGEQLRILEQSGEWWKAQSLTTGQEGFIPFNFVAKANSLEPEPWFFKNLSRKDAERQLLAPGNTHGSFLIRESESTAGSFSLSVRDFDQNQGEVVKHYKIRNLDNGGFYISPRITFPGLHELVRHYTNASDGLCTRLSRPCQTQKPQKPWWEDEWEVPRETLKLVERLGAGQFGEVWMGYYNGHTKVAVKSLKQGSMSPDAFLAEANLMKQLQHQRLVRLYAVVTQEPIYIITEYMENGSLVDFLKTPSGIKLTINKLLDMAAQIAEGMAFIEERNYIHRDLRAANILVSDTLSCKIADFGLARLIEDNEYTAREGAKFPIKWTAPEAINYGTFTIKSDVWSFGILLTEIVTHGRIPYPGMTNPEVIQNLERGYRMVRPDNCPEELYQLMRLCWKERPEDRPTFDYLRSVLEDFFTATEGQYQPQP
Ribosomal protein S6 kinase alpha-3, sequence (P51812 whole entry): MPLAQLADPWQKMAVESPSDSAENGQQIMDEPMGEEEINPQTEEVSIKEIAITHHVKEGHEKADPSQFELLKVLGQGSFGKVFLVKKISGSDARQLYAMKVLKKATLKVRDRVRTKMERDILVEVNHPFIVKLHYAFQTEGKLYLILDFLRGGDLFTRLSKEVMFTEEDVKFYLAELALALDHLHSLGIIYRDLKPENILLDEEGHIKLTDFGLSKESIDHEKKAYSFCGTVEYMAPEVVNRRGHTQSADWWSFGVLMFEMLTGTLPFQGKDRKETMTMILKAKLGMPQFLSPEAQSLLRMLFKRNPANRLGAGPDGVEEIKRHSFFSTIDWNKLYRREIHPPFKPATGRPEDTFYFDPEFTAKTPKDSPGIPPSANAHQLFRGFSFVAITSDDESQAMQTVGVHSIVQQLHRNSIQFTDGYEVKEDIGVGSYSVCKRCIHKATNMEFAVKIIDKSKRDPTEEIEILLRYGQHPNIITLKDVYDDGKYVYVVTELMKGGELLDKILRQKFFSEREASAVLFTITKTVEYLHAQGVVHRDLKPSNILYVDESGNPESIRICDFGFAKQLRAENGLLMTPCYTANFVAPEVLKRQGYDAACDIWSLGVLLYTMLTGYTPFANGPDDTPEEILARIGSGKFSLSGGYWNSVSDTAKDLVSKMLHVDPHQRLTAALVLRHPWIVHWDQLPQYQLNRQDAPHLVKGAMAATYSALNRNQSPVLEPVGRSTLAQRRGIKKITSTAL

COc1cc(N(C)c2ccnc3ccc(C(F)(F)F)cc23)cc(OC)c1OC
% binding [1]: 84%

C=CC(=O)Nc1cccc(C(=O)Nc2ccc(Nc3cc(-c4[nH]c(SC)nc4C)ccn3)cc2)c1
% of control ([2]; at 1 µM): 95% | % of control ([2]; at 5 µM): 70% | % of control ([3]; at 1 µM): 107% | % of control ([3]; at 5 µM): 95%

C=CC(=O)Nc1ccc(C(=O)Nc2[nH]nc3c2CN(C(=O)N[C@H](CN(C)C)c2ccccc2)C3(C)C)cc1
% of engagement [4]: 13.1%

Cn1cc(-n2cnc3c(NCc4nc5cc(Cl)c(Cl)cc5[nH]4)nc(N4CCOCC4)nc32)cn1
% of control [5]: -2.62%

CNC(=O)Nc1ccc(-c2nc(N3CC4CCC(C3)O4)c3cnn(C4CCC5(CC4)OCCO5)c3n2)cc1
% of control [6]: 100%

CN(C)C/C=C/C(=O)Nc1ccc(C(=O)N2CCCC(Nc3ncc(Cl)c(-c4c[nH]c5ccccc45)n3)C2)cc1 (centres undefined)
% of control [7]: 31%
